Data reported in US9605007B2, “2-amino-6-methyl-4,4a,5,6-tetrahydropyrano[3,4-d][1,3]thiazin-8a(8H)-yl-1,3-thiazol-4-yl amides” (Pfizer Inc., priority 2014, dated 2017).
Values belong to the molecule of their own block, whether it stands above or below them.

Experiments:
BACE1 = BACE1 (Homo sapiens (Human), UniProt P56817); experiment: BACE1 Cell-Free Assay (fluorescence polarization); format: biochemical; conditions: geometric mean of 2-4 determinations unless otherwise indicated (b: ≧5 determinations; c: single determination); read-out: BACE 1 Cell-free Assay IC50
Chain of BACE1 (P56817 46-457): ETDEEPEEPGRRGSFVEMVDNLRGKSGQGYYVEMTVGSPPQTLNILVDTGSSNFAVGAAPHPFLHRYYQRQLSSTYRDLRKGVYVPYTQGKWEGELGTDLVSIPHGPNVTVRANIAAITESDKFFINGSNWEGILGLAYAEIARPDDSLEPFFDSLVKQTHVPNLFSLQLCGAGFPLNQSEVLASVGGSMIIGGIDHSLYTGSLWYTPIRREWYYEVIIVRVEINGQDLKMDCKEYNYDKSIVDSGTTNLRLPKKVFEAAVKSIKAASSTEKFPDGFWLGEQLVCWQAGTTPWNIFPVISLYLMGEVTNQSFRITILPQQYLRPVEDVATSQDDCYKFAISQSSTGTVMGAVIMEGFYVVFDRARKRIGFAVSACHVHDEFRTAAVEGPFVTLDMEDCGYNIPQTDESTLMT
Description: This assay measures the inhibition of the beta-secretase enzyme as it cleaves a non-native peptide.
A synthetic APP substrate that can be cleaved by beta-secretase having N-term inal biotin and made fluorescent by the covalent attachment of Oregon Green at the Cys residue is used to assay beta-secretase activity in the presence or absence of the inhibitory compounds. The substrate is Biotin-[…]-C[Oregon Green]KK-OH. The BACE1 enzyme is affinity purified material from conditioned media of CHO-K1 cells that have been transfected with a soluble BACE construct (BACE1deltaTM96His). […] Plates are covered and incubated for 3 hours at 37° C. […] The activity of the beta-secretase enzyme is detected by changes in the fluorescence polarization that occur when the substrate is cleaved by the enzyme.

[1] = HLM CLint (clearance in human liver microsomes); format: in vitro ADME
GSH Incubation Assay = format: in vitro ADME; conditions: for formation of GSH adducts: following incubations; for Observed GSH adducts: glutathione (50 mM) at 37° C. in buffer for 4 hours
Method: The test compound (10 μM in DMSO) was incubated with L-glutathione (50 mM, prepared in 100 mM potassium phosphate buffer) at 37° C. for 4 hours and then analyzed by HPLC-UV/MS/MS without work-up. Thermo Accela HPLC and Velos Pro Orbitrap Elite (S/N: SN05189B) operating in positive mode with a source voltage of 3.5 kV with data dependant processing. […] Product assignments were based on high resolution mass spectrometer fragmentation.

CYP2D6 = CYP2D6 (Homo sapiens (Human), UniProt P10635); experiment: General Multi-Point Cocktail DDI IC50 Assay (CYP2D6)
Chain of CYP2D6 (P10635 whole entry): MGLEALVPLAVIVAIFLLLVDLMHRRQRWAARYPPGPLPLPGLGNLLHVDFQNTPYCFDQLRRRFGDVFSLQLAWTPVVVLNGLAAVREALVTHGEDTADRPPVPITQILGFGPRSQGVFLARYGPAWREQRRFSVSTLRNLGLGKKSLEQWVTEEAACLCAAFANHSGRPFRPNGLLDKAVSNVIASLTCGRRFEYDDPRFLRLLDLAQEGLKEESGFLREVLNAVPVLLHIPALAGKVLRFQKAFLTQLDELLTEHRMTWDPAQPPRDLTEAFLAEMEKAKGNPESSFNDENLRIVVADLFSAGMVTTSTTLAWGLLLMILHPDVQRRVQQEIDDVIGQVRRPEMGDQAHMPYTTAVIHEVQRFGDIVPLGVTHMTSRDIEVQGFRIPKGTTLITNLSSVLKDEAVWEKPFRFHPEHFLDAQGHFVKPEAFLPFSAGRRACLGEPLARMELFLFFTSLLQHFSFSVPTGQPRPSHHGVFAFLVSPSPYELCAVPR
Method: General Multi-Point Cocktail DDI IC50 Assay Conditions:
The incubation volume is 0.1 mL, utilizing a 384-well plate format. […] Substrate concentrations are near Km values that had been previously determined and incubation times are selected based on determinations of reaction velocity linearity. […] Samples are directly injected on an HPLC/MS/MS system. A Biomek FX workstation is used for liquid handling and sample incubation.

BACE2/BACE1 = BACE2/BACE1 Binding Ratio (scintillation proximity binding assays); set-up: species or system human; conditions: ratio of IC50 from respective binding assays, pH 6.0
Method: BACE2/BACE1 Binding Ratio:
The BACE1 and BACE2 binding assays measured beta-site amyloid precursor protein-cleaving enzyme (BACE) binding as a decrease in the counts of radioligand bound in a scintillation proximity assay (SPA). […] Full length human BACE1 or BACE2 over-expressed in HEK cells was prepared by Pfizer scientists. Frozen stock cell paste was reacted in 50 mM sodium acetate buffer (pH=6.0) containing 3H-(4aR,6R,8aS)-8a-(2,4-difluorophenyl)-6-(1-methyl-1H-pyrazol-4-yl)-4,4a,5,6,8,8a-hexahydropyrano[3,4-d][1,3]thiazin-2-amine ligand, SPA bead and 60 μM to 600 pM of test compound in an assay volume of 27 uL. The compound plate also contained positive (BACE inhibitor) and negative (DMSO) control wells. The binding was carried out at room temperature for 30 minutes and then the plates were read on a TriLux Microbeta reader to determine the number of counts bound.

MDR1 (P-glycoprotein) [2] = target: MDR1 (P-glycoprotein) (Homo sapiens (Human), UniProt P08183); experiment: Pgp Liability MDR1 Er; format: in vitro ADME; conditions: MDR1-transfected MDCK line, ratio of permeability Papp BA/AB
Chain of MDR1 (P-glycoprotein) (Homo sapiens (Human), UniProt P08183) (P08183 whole entry): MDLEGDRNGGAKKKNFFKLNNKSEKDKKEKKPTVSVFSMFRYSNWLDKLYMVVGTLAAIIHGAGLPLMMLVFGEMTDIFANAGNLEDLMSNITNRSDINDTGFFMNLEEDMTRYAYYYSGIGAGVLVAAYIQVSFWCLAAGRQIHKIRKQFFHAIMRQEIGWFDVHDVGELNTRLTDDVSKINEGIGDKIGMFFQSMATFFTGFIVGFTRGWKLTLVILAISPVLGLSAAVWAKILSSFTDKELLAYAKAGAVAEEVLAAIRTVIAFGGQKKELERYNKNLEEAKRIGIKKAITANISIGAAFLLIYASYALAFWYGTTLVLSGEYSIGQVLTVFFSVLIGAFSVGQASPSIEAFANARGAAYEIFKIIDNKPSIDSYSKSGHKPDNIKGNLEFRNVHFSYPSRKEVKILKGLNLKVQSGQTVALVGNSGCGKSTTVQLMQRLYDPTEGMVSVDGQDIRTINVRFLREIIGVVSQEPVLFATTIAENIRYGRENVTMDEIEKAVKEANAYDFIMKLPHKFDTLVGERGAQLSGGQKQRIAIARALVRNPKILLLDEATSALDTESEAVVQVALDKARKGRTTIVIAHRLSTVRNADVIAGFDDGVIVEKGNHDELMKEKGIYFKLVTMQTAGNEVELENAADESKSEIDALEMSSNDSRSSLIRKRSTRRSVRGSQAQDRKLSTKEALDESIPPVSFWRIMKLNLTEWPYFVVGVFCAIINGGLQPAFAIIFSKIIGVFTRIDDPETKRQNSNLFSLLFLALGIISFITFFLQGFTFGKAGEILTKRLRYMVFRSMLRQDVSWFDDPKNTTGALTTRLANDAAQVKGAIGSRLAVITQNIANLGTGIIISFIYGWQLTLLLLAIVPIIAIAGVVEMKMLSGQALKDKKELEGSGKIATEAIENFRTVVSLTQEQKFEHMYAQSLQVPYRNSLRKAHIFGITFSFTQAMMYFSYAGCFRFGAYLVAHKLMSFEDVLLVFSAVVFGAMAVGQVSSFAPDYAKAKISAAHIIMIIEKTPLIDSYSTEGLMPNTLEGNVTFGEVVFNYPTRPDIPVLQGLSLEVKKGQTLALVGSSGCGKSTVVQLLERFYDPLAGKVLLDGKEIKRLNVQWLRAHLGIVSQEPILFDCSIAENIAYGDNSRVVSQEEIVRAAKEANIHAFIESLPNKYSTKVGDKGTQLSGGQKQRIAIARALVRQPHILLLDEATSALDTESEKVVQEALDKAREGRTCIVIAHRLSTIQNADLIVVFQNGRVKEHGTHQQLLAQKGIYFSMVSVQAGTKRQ
Description: (§1) MDR1 Efflux Ratio (MDR Er) from MDR1-transfected MDCK line cell line represents the ratio of permeability, Papp BA/AB.

[3] = system: sAPPβ in H4 human neuroglioma cells over-expressing wild-type human APP695; experiment: sAPPβ Whole-Cell Assay (WCA); format: cell-based; conditions: 18 h
Method: sAPPβ Whole-Cell Assay (WCA):
sAPPβ, the primary cleavage product of BACE1, was determined in H4 human neuroglioma cells over-expressing the wild-type human APP695. […] The colorimetric reaction was read by an EnVision (PerkinElmer) plate-reader.

MDR1 (P-glycoprotein) [4] = experiment: Pgp Liability MDR1 Er; format: in vitro ADME; conditions: dog, MDCK-MDR1
Description: as §1

- IC50 (BACE1): 0.7 nM
SMILES: C[C@H]1C[C@H]2CSC(N)=N[C@@]2(c2nc(NC(=O)c3coc(CF)n3)cs2)CO1 [Example 3, N-{2-[(4aR,6S,8aR)-2-amino-6-methyl-4,4a,5,6-tetrahydropyrano[3,4-d][1,3]thiazin-8a(8H)-yl]-1,3-thiazol-4-yl}-2-(fluoromethyl)-1,3-oxazole-4-carboxamide]

- BACE2/BACE1 Binding Ratio (BACE2/BACE1): 1.0
- Pgp liability MDR1 Er (MDR1 (P-glycoprotein) [2]): 3.2
- IC50 [3]: < 1 nM
SMILES: NC1=N[C@@]2(c3cc(NC(=O)c4ccc(OC(F)F)cn4)ccc3F)CO[C@@H](C(F)(F)F)C[C@H]2CS1 [Comparator 6]

- IC50 (BACE1): 0.9 nM
SMILES: C[C@H]1C[C@H]2CSC(N)=N[C@@]2(c2nc(NC(=O)c3ccn(C(F)F)n3)cs2)CO1 [Example 4, N-{2-[(4aR,6S,8aR)-2-amino-6-methyl-4,4a,5,6-tetrahydropyrano[3,4-d][1,3]thiazin-8a(8H)-yl]-1,3-thiazol-4-yl}-1-(difluoromethyl)-1H-pyrazole-3-carboxamide]

- Pgp liability MDR1 Er (MDR1 (P-glycoprotein) [2]): 7.1
SMILES: C[C@H]1C[C@H]2CSC(N)=N[C@@]2(c2nc(NC(=O)c3ccc(OC(F)F)cn3)cs2)CO1 [Comparator 1]

- formation of GSH adducts (GSH Incubation Assay): not detected
- Observed GSH adducts (GSH Incubation Assay): Negative
- efflux ratio (MDR1 (P-glycoprotein) [4]): < 2.5
- IC50 (CYP2D6): < 30000 nM
SMILES: C[C@H]1C[C@H]2CSC(N)=N[C@@]2(c2nc(NC(=O)c3cnc(OC(F)F)cn3)cs2)CO1 [Example 2, N-{2-[(4aR,6S,8aR)-2-amino-6-methyl-4,4a,5,6-tetrahydropyrano[3,4-d][1,3]thiazin-8a(8H)-yl]-1,3-thiazol-4-yl}-5-(difluoromethoxy)pyrazine-2-carboxamide]

The remaining lines, values behind:

SMILES: C[C@H]1C[C@H]2CSC(N)=N[C@@]2(c2nc(NC(=O)c3ccc(OC(F)F)cn3)ccc2F)CO1 [Comparator 2]
- HLM CLint [1]: 22.9 mL/min/kg

SMILES: C[C@H]1C[C@H]2CSC(N)=N[C@@]2(c2nc(NC(=O)c3ccc(Cl)cn3)cs2)CO1 [Example 7, N-{2-[(4aR,6S,8aR)-2-amino-6-methyl-4,4a,5,6-tetrahydropyrano[3,4-d][1,3]thiazin-8a(8H)-yl]-1,3-thiazol-4-yl}-5-chloropyridine-2-carboxamide]
- formation of GSH adducts (GSH Incubation Assay): not detected
- Observed GSH adducts (GSH Incubation Assay): Negative
- IC50 (CYP2D6): < 30000 nM

SMILES: C[C@H]1C[C@H]2CSC(N)=N[C@@]2(c2nc(NC(=O)c3ccc(OC(F)F)cn3)cs2)CO1 [Example 1, N-{2-[(4aR,6S,8aR)-2-amino-6-methyl-4,4a,5,6-tetrahydropyrano[3,4-d][1,3]thiazin-8a(8H)-yl]-1,3-thiazol-4-yl}-5-(difluoromethoxy)pyridine-2-carboxamide]
- formation of GSH adducts (GSH Incubation Assay): not detected
- Observed GSH adducts (GSH Incubation Assay): Negative
- IC50 (CYP2D6): < 30000 nM

SMILES: NC1=N[C@@]2(c3cc(NC(=O)c4ccc(OC(F)F)cn4)ccc3F)COCC[C@H]2CS1 [Comparator 4]
- Pgp liability MDR1 Er (MDR1 (P-glycoprotein) [2]): 6.8
- HLM CLint [1]: 8.3 mL/m in/kg mL/min/kg
- IC50 [3]: < 1 nM

SMILES: Cc1cc(OC(F)F)cnc1C(=O)Nc1csc([C@]23CO[C@@H](C)C[C@H]2CSC(N)=N3)n1 [Example 45, N-{2-[(4aR,6S,8aR)-2-amino-6-methyl-4,4a,5,6-tetrahydropyrano[3,4-d][1,3]thiazin-8a(8H)-yl]-1,3-thiazol-4-yl}-5-(difluoromethoxy)-3-methylpyridine-2-carboxamide]
- formation of GSH adducts (GSH Incubation Assay): not detected
- Observed GSH adducts (GSH Incubation Assay): Negative
- IC50 (CYP2D6): < 30000 nM

SMILES: C[C@H]1C[C@H]2CSC(N)=N[C@@]2(c2cc(NC(=O)c3ccc(Cl)cn3)ccc2F)CO1 [Comparator 7]
- BACE2/BACE1 Binding Ratio (BACE2/BACE1): 1.0
- HLM CLint [1]: 34.4 mL/min/kg
- IC50 [3]: < 1 nM
